Patent publication USRE47689E1, “Compounds for treating spinal muscular atrophy” (PTC Therapeutics, Inc., priority 2011, dated 2019)
Where two headings read alike, the source gives them in different places.

Tests used:
Smn protein = Smn protein assay in cultured cells (SMN HTRF); type: cell-based, human; settings: 48 hours; for maximum fold (Fold) increase of Smn protein: SMA patient fibroblast cells, 7-point concentration data, fold increase relative to vehicle control (SMN HTRF); for EC1.5x (concentration giving 1.5-fold Smn protein increase): SMA Type 1 patient fibroblast cells (GM03813), 7-point concentration curve, SMN HTRF, concentration producing 1.5 times Smn protein vs DMSO vehicle control, read-out: EC1.5x for Smn protein expression
In short: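 Smn in SMA fibroblast lysates, measured by anti-SMN HTRF after 48 h compound exposure; EC1.5x from fold change over vehicle.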

[1] = system: SMN2 minigene (full length SMN2 minigene mRNA containing SMN2 exon 7); assay: SMN2 minigene mRNA splicing RT-qPCR assay in cultured cells; type: cell-based, human; settings: Homo sapiens, HEK293-H, read-out: EC1.5x for production of full length SMN2 mRNA
In short: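 Full-length SMN2 minigene mRNA (exon 7 included), minigene-specific and not endogenous SMN, quantified by RT-qPCR multiplexed with GAPDH in stably transfected HEK293H cells after 24 h compound exposure at 37° C. Abundance from efficiency-corrected Ct, normalized to GAPDH and vehicle; EC1.5x reported as star bins.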

[2] = HEK293H cells stably transfected with SMN2-A minigene, 24 hours, 7-point concentration curve, 1.5-fold relative to vehicle-treated cells

Row | melting point | Compound | maximum fold (Fold) increase of Smn protein (Smn protein) | EC (1.5-fold) [1, 2] | EC (1.5-fold) ([1]; 24 h) | EC1.5x (concentration giving 1.5-fold Smn protein increase) (Smn protein)
1 | 236 to 239 °C | Cc1cn2cc(-c3cc4ccc(N5CC6CC5CN6)cc4oc3=O)cc2c(C)n1 (stereo not drawn) [Compound 783, 7-(2,5-diazabicyclo[2.2.1]hept-2-yl)-3-(1,3-dimethylpyrrolo[1,2-a]pyrazin-7-yl)-2H-chromen-2-one] | *** (fold increase between >1.35 and ≤1.5) | < 0.1 µM | – | –
2 | 232 to 238 °C | Cn1cc2cc(-c3cc4ccc(C5CCNCC5)cc4oc3=O)ccc2n1 [Compound 856, 3-(2-methyl-2H-indazol-5-yl)-7-(piperidin-4-yl)-2H-chromen-2-one] | ***** (fold increase >1.65) | < 0.1 µM | – | < 300 nM
3 | 205 to 211 °C | O=c1oc2cc(O[C@@H]3CCNC3)ccc2cc1-c1nc2ccccc2s1 [Compound 55, 3-(1,3-benzothiazol-2-yl)-7-[(3R)-pyrrolidin-3-yloxy]-2H-chromen-2-one] | * (maximum fold increase of ≤1.2) | 1 to 3 µM | – | –
4 | 198 to 200 °C | Cc1cn2cc(-c3cc4ccc(C5CCN(C6COC6)CC5)cc4oc3=O)ccc2n1 [Compound 828, 3-(2-methylimidazo[1,2-a]pyridin-6-yl)-7-[1-(oxetan-3-yl)piperidin-4-yl]-2H-chromen-2-one] | ***** (fold increase >1.65) | 0.1 to 0.3 µM | – | 300 to 1000 nM
5 | 232 to 236 °C | Cc1ccn2cc(-c3cc4ccc(N5CCCN(C)CC5)cc4oc3=O)nc2n1 [Compound 227, 7-(4-methyl-1,4-diazepan-1-yl)-3-(7-methylimidazo[1,2-a]pyrimidin-2-yl)-2H-chromen-2-one] | *** (fold increase between >1.35 and ≤1.5) | 0.1 to 0.3 µM | – | 3000 to 10000 nM
6 | 253 to 255 °C | O=c1oc2cc(N3CCNCC3)ccc2cc1Nc1ccc(Cl)cn1 [Compound 65, 3-[(5-chloropyridin-2-yl)amino]-7-(piperazin-1-yl)-2H-chromen-2-one] | * (maximum fold increase of ≤1.2) | 0.3 to 1 µM | – | –
7 | 164 to 169 °C | Cc1cc(C)c2nc(-c3cc4ccc(N5CCCN(C)CC5)cc4oc3=O)cn2c1 [Compound 389, 3-(6,8-dimethylimidazo[1,2-a]pyridin-2-yl)-7-(4-methyl-1,4-diazepan-1-yl)-2H-chromen-2-one] | *** (fold increase between >1.35 and ≤1.5) | 0.3 to 1 µM | – | –
8 | 250 to 260 °C | Cc1cn2cc(-c3cc4ccc(N5C[C@H]6CNC[C@H]6C5)cc4oc3=O)nc2c(C)n1 [Compound 686, 3-(6,8-dimethylimidazo[1,2-a]pyrazin-2-yl)-7-[(3aR,6aS)-hexahydropyrrolo[3,4-c]pyrrol-2(1H)-yl]-2H-chromen-2-one] | ***** (fold increase >1.65) | < 0.1 µM | – | < 300 nM
9 | 156 to 160 °C | Cc1cn2cc(-c3cc4ccc(CCCCN(C)CCO)cc4oc3=O)nc2c(C)n1 [Compound 903, 3-(6,8-dimethylimidazo[1,2-a]pyrazin-2-yl)-7-{4-[(2-hydroxyethyl)(methyl)amino]butyl}-2H-chromen-2-one] | **** (fold increase between >1.5 and ≤1.65) | < 0.1 µM | – | 300 to 1000 nM
10 | 140 to 143 °C | COc1ccc(-c2cc3ccc(N4CCN[C@@H](C)C4)cc3oc2=O)cc1OC [Compound 383, 3-(3,4-dimethoxyphenyl)-7-[(3S)-3-methylpiperazin-1-yl]-2H-chromen-2-one] | **** (fold increase between >1.5 and ≤1.65) | 0.1 to 0.3 µM | – | 1000 to 3000 nM
11 | 191 to 196 °C | CC(C)NCc1ccc2cc(-c3nc4c(C(F)(F)F)cccc4s3)c(=O)oc2c1 [Compound 9, 7-[(propan-2-ylamino)methyl]-3-[4-(trifluoromethyl)-1,3-benzothiazol-2-yl]-2H-chromen-2-one] | * (maximum fold increase of ≤1.2) | 3 to 30 µM | – | –
12 | 149 to 151 °C | COc1cc(OC)cc(-c2cc3ccc(N4CCN[C@@H](C)C4)cc3oc2=O)c1 [Compound 413, 3-(3,5-dimethoxyphenyl)-7-[(3S)-3-methylpiperazin-1-yl]-2H-chromen-2-one] | * (maximum fold increase of ≤1.2) | 1 to 3 µM | – | –
13 | 224 to 227 °C | Cc1c(-c2cn3cc(Cl)ccc3n2)c(=O)oc2cc(N3CCNCC3)ccc12 [Cpd 112, 3-(6-chloroimidazo[1,2-a]pyridin-2-yl)-4-methyl-7-(piperazin-1-yl)-2H-chromen-2-one] | * (maximum fold increase of ≤1.2) | 3 to 30 µM | – | –
14 | 267 °C (dec.) | Cc1ccc2nc(-c3cc4ccc(N5CCN(C)CC5)cc4oc3=O)cn2c1 [Compound 81, 3-(6-methylimidazo[1,2-a]pyridin-2-yl)-7-(4-methylpiperazin-1-yl)-2H-chromen-2-one] | *** (fold increase between >1.35 and ≤1.5) | 0.3 to 1 µM | – | 3000 to 10000 nM
15 | 170 to 174 °C | COc1cc(-c2cc3ccc(N4CCNCC4)cc3oc2=O)ccc1C [Compound 574, 3-(3-methoxy-4-methylphenyl)-7-(piperazin-1-yl)-2H-chromen-2-one] | * (maximum fold increase of ≤1.2) | 1 to 3 µM | – | –
16 | 185 to 191 °C | Cc1cn2cc(-c3cc4ccc(OC5CCN(C(C)C)CC5)cc4oc3=O)nc2c(C)n1 [Compound 901, 3-(6,8-dimethylimidazo[1,2-a]pyrazin-2-yl)-7-{[1-(propan-2-yl)piperidin-4-yl]oxy}-2H-chromen-2-one] | ***** (fold increase >1.65) | < 0.1 µM | – | < 300 nM
17 | 171 to 173 °C | COc1ccc(-c2cc3ccc(N4CCNCC4)cc3oc2=O)cc1C [Compound 541, 3-(4-methoxy-3-methylphenyl)-7-(piperazin-1-yl)-2H-chromen-2-one] | * (maximum fold increase of ≤1.2) | 1 to 3 µM | – | –
18 | 289 to 292 °C | CN1CCCN(c2ccc3cc(-c4cn5cc(Cl)cnc5n4)c(=O)oc3c2)CC1 [Compound 337, 3-(6-chloroimidazo[1,2-a]pyrimidin-2-yl)-7-(4-methyl-1,4-diazepan-1-yl)-2H-chromen-2-one] | * (maximum fold increase of ≤1.2) | 1 to 3 µM | – | –
19 | 150 to 152 °C | COc1cccc(-c2cc3ccc(N4CCN[C@H](C)C4)cc3oc2=O)n1 [Compound 361, 3-(6-methoxypyridin-2-yl)-7-[(3R)-3-methylpiperazin-1-yl]-2H-chromen-2-one] | ** (fold increase between >1.2 and ≤1.35) | 1 to 3 µM | – | –
20 | 231 to 233 °C | Cc1cn2cc(-c3cc4ccc(N5CCN(CCO)CC5)cc4oc3=O)nc2c(C)n1 [Compound 654, 3-(6,8-dimethylimidazo[1,2-a]pyrazin-2-yl)-7-[4-(2-hydroxyethyl)piperazin-1-yl]-2H-chromen-2-one] | **** (fold increase between >1.5 and ≤1.65) | < 0.1 µM | – | < 300 nM

Row | Compound | melting point | maximum fold (Fold) increase of Smn protein (Smn protein) | EC (1.5-fold) [1, 2] | EC (1.5-fold) ([1]; 24 h) | EC1.5x (concentration giving 1.5-fold Smn protein increase) (Smn protein)
21 | O=c1oc2cc(N3CC4CCC(C3)N4)ccc2cc1-c1cn2cccc(F)c2n1 [Compound 506, 7-(3,8-diazabicyclo[3.2.1]oct-3-yl)-3-(8-fluoroimidazo[1,2-a]pyridin-2-yl)-2H-chromen-2-one] | 232 to 235 °C | ** (fold increase between >1.2 and ≤1.35) | – | 0.1 to 0.3 µM | –
22 | O=c1oc2cc(N3CCNCC3)ccc2cc1-c1ccnc(Cl)c1 [Compound 180, 3-(2-chloropyridin-4-yl)-7-(piperazin-1-yl)-2H-chromen-2-one] | 190 to 192 °C | * (maximum fold increase of ≤1.2) | – | < 0.1 µM | –
23 | C[C@H]1CN(c2ccc3cc(-c4ccncc4)c(=O)oc3c2)CCN1 [Compound 549, 7-[(3S)-3-methylpiperazin-1-yl]-3-(pyridin-4-yl)-2H-chromen-2-one] | 210 to 213 °C | ** (fold increase between >1.2 and ≤1.35) | – | 1 to 3 µM | –
24 | O=c1oc2cc(N3CCN4CCC3CC4)ccc2cc1-c1cn2cccc(F)c2n1 [Compound 501, 7-(1,4-diazabicyclo[3.2.2]non-4-yl)-3-(8-fluoroimidazo[1,2-a]pyridin-2-yl)-2H-chromen-2-one] | 175 to 178 °C | ** (fold increase between >1.2 and ≤1.35) | – | 0.1 to 0.3 µM | –
